Patent publication US20260364184A1, “COMPOUND BASED ON OXOISOINDOLINYL-SUBSTITUTED TETRAHYDROPYRIMIDINE-DIONE AND USE THEREOF” (GLUETACS THERAPEUTICS (SHANGHAI) CO., LTD., priority 2023, published 2026)

Experiments:
Type in all cases: cell-based
CDK4 = target: T1, CDK4 (Homo sapiens, UniProt P11802+Q96SW2); test: Western blot degradation of CDK4; settings: MDA-MB-231 Cell; 24 hours
T1 construct: expression of target proteins in cells; endogenous in cells
Experimental: (§1) Conventional Western blot assay was performed to evaluate the effects of the compounds of the present disclosure on the expression of target proteins in cells.
(§2) (1) Cell Seeding and Protein Harvesting: The selected cells were processed according to the cell seeding procedure and protein harvesting procedure in Table II-2.
(§3) (2) To the collected supernatant, 5×SDS sample loading buffer was added, followed by denaturation at 95 °C for 5 minutes. The denatured samples were then separated by SDS-PAGE electrophoresis on a polyacrylamide gel. Proteins were transferred to a nitrocellulose membrane (0.45 μm NC membrane), blocked with blocking buffer at room temperature for 1 hour, and subjected to antibody incubation and development procedures according to the antibody manufacturer's instructions (Cell Signaling Technology).
(§4) Half-Maximal Degradation Concentration value (the drug concentration required for degrading proteins by 50%, abbreviated as DC50) reads method: comparing the grayscale values of Western blot bands from drug-treated samples with those from blank DMSO-treated controls, and identifying the drug concentration range at which the grayscale value is half that of the DMSO-treated control bands.
(§5) DC50 values can be calculated using ImageJ software to measure grayscale values of Western blot bands from drug-treated samples. The concentration-response curve is fitted to estimate the drug concentration corresponding to half the grayscale value.
(§6) Target protein remaining (%) refers to the percentage of target protein remaining in cells after treatment with protein degrader compounds.
(§7) Calculation method for target protein remaining (%): Use ImageJ software to measure grayscale values of Western blot bands from drug (protein degrader)-treated samples. The grayscale value of drug-treated bands is divided by that of internal control protein bands, and the resulting quotient is normalized to obtain the relative percentage of remaining target protein after protein degrader treatment.
(§8) Target protein degradation rate (%)=1−target protein remaining (%).

CDK6 = target: T2, CDK6 (Homo sapiens, UniProt Q00534+Q96SW2); test: Western blot degradation of CDK6; settings: MDA-MB-231 Cell; 24 hours
T2 construct: expression of target proteins in cells; endogenous in cells
Experimental: as §1, §2, §3, §4, §5, §6, §7, §8

[1] = Inhibition of RPMI-8226 cell proliferation (CellTiter luminescent viability); settings: Homo sapiens; RPMI-8226; 10 nM; read-out: Inhibition Rate at 10 nM (%)
[2] = test system: Human B-Cell Lymphoma Cells (RPMI-8226); test: as above; settings: RPMI-8226, 500 nM, read-out: Inhibition Rate at 500 nM (%)
[3] = test system: Human lung cancer cell line (H292); test: Inhibition of H292 cell proliferation (CellTiter luminescent viability); settings: NCI-H292, Table IM1, CDK9 inhibitor-based, 96 hours; for inhibition at 0.01 µM: H292, 10 nM, read-out: Inhibition Rate at 10 nM (%); for inhibition at 0.5 µM: H292, 500 nM, read-out: Inhibition Rate at 500 nM (%)
Experimental: The tumor cells used herein were cultured in a cell culture medium listed in table 3 at 37 °C in an incubator with 5% CO2. Prior to experimentation, all cell lines used were correctly identified by STR profiling, and tested negative for mycoplasma contamination using a mycoplasma detection kit through routine screenings.
The IC50 values of the compounds of the present disclosure (including the compounds in Table 1, Table 2, and Examples 1-468) were determined using the CellTiter-Meiluncell Luminescent Cell Viability Assay Kit from Dalian Meilun Biotech Co., Ltd. The detailed procedure is as follows: Tumor cells were seeded in 96-well cell culture plates at the densities specified in Table 4. On the following day, the test compounds of the present disclosure were subjected to serial dilution. The dilution can be performed according to one of the following two methods: • (1) The first dilution method: The test compounds of the present disclosure (including the compounds in Table 1, Table 2, and Examples 1-468) were subjected to 5-fold serial dilutions starting from a highest concentration of 2000 μM, resulting in a total of 9 concentrations from high to low (2000, 400, 80, 16, 3.2, 0.64, 0.128, 0.0256, 0.00512 μM). Subsequently, 0.5 μL of the test compound dilution was transferred into the 96-well plate containing the cells, with each well containing 100 μL of cell culture medium. […] Into the 96-well plate, the diluted test compounds and corresponding detection reagents were added, resulting in final test compound concentrations of 500 nM and 10 nM, respectively. The experimental procedure is described below using the diluted 2 μM test compound as an example.
0.5 μL of the aforementioned diluted compound of the present disclosure (including the compounds in Table 1, Table 2, and Examples 1-468) was added to the seeded cells in 100 μL of medium, yielding a final test compound concentration of 10 nM. After the cells were treated with the compounds of the present disclosure for a specified period, the cell viability assay reagent was added to the culture medium according to the kit's instructions to determine cell viability. […] All controls were treated using the same procedure as the compounds of the present disclosure. The growth inhibition curves for the compounds of the present disclosure were plotted using Prism GraphPad software, and the IC50 values were calculated therefrom.

T1 sequence (P11802 whole entry): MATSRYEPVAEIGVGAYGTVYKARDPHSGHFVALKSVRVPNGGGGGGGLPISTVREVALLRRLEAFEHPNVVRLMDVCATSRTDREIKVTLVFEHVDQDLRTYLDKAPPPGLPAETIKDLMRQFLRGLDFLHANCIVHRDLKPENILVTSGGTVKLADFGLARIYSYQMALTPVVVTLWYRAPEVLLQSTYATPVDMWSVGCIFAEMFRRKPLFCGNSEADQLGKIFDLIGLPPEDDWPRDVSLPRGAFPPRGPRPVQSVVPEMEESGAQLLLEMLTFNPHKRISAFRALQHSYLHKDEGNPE
T1 sequence (Q96SW2 whole entry): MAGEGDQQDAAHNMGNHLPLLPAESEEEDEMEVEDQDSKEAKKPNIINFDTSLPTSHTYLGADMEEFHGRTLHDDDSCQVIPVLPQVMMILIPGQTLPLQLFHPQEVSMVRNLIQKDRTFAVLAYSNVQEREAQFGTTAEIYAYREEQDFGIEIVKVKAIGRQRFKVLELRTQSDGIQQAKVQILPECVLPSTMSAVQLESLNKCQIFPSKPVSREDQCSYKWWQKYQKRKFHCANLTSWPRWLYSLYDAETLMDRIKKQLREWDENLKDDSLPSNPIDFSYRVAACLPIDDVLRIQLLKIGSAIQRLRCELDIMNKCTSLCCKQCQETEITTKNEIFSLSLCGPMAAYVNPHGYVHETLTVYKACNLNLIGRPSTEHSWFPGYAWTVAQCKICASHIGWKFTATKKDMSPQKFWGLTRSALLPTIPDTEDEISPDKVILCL
T1 sequence (Q16531 whole entry partner): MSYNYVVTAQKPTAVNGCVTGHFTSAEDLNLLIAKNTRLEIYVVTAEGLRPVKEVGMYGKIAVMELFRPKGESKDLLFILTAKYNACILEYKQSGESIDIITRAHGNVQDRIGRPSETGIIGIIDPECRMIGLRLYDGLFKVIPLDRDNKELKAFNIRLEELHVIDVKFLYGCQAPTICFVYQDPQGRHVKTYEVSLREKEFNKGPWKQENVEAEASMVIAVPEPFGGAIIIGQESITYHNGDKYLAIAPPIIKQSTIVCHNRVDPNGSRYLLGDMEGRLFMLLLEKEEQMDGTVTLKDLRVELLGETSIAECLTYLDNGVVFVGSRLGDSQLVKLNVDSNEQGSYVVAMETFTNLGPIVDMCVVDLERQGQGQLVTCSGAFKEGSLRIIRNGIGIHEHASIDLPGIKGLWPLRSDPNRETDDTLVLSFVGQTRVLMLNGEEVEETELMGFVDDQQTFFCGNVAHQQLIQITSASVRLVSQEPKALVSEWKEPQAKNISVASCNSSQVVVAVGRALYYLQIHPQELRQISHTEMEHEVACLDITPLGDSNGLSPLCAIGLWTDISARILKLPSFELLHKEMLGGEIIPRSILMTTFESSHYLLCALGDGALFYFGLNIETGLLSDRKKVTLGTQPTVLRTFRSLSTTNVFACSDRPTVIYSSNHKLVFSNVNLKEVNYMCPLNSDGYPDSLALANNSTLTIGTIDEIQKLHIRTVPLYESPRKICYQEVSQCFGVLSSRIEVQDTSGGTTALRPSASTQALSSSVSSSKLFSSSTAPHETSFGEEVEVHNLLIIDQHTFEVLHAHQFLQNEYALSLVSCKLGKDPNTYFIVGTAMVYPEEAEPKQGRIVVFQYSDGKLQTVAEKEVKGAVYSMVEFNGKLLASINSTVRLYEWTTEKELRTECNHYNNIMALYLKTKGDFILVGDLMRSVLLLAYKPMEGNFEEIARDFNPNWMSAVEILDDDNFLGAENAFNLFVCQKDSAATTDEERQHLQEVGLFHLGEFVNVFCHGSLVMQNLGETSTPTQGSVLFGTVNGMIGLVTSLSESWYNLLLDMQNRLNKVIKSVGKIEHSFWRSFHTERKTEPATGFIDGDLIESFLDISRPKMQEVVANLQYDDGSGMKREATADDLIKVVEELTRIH
T2 sequence (Q00534 whole entry): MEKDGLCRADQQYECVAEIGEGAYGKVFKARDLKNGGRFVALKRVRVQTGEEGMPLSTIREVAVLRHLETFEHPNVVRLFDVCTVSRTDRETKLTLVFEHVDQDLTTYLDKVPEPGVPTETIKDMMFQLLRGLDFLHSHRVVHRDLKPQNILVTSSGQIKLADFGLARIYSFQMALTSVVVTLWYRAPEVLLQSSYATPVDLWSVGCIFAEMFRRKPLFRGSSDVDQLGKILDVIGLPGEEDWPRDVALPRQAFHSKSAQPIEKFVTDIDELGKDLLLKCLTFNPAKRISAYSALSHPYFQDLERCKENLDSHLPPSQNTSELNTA
T2 sequence (Q96SW2 whole entry): as the sequence (Q96SW2 whole entry) above
T2 sequence (Q16531 whole entry partner): as the sequence (Q16531 whole entry partner) above

Row | Compound | Degradation of substrate protein CDK6 (substrate protein remaining %) (CDK6) | Degradation of substrate protein CDK4 (substrate protein remaining %) (CDK4) | inhibition at 0.01 µM [1] [%] | inhibition at 0.5 µM [2] [%] | inhibition at 0.01 µM [3] [%] | inhibition at 0.5 µM [3] [%]
1 | CN(C)C(=O)c1cc2cnc(Nc3ccc(N4CCC(N5CCN(Cc6ccc7c(c6)C(=O)N(N6CCC(=O)NC6=O)C7=O)CC5)CC4)cn3)nc2n1C1CCCC1 [GT-06498, 7-cyclopentyl-2-((5-(4-(4-((2-(2,4-dioxotetrahydropyrimidin-1(2H)-yl)-1,3-dioxoisoindolin-5-yl)methyl)piperazin-1-yl)piperidin-1-yl)pyridin-2-yl)amino)-N,N-dimethyl-7H-pyrrolo[2,3-d]pyrimidine-6-carboxamide] | A (0%≤substrate protein remaining %≤80%) | A (0%≤substrate protein remaining %≤80%) | – | – | – | –
2 | CN(C)C(=O)c1cc2cnc(Nc3ccc(N4CCN(Cc5ccc6c(c5)C(=O)N(N5CCC(=O)NC5=O)C6=O)CC4)cn3)nc2n1C1CCCC1 [GT-06336, 7-cyclopentyl-2-((5-(4-((2-(2,4-dioxotetrahydropyrimidin-1(2H)-yl)-1,3-dioxoisoindolin-5-yl)methyl)piperazin-1-yl)pyridin-2-yl)amino)-N,N-dimethyl-7H-pyrrolo[2,3-d]pyrimidine-6-carboxamide] | B (80%<substrate protein remaining %≤100%) | A (0%≤substrate protein remaining %≤80%) | – | – | – | –
3 | O=C1CCN(N2Cc3cc(CN4CCN(c5ccc(CC(=O)Nc6cc(C7CCC7)[nH]n6)cc5)CC4)ccc3C2=O)C(=O)N1 [GT-08229, N-(5-cyclobutyl-1H-pyrazol-3-yl)-2-(4-(4-((2-(2,4-dioxotetrahydropyrimidin-1(2H)-yl)-1-oxoisoindolin-5-yl)methyl)piperazin-1-yl)phenyl)acetamide] | – | – | 10 to 20 | 10 to 20 | 20 to 30 | 30 to 40
4 | O=C(NC1CCNCC1)c1[nH]ncc1NC(=O)c1c(Cl)cccc1Cl [AT7519, reference compound] | – | – | 0 to 5 | -20 to -15 | -5 to 0 | 5 to 10
5 | Cn1ncc(-c2nc(NC3CCN(CC4CCN(c5cccc6c5C(=O)N(N5CCC(=O)NC5=O)C6=O)CC4)CC3)ncc2Cl)c1CC1CC1 [GT-08347, 4-(4-((4-((5-chloro-4-(5-(cyclopropylmethyl)-1-methyl-1H-pyrazol-4-yl)pyrimidin-2-yl)amino)piperidin-1-yl)methyl)piperidin-1-yl)-2-(2,4-dioxotetrahydropyrimidin-1(2H)-yl)isoindoline-1,3-dione] | – | – | 20 to 30 | 10 to 20 | 5 to 10 | 20 to 30

Continued, in another order:

Row | Degradation of substrate protein CDK6 (substrate protein remaining %) (CDK6) | Compound | Degradation of substrate protein CDK4 (substrate protein remaining %) (CDK4) | inhibition at 0.01 µM [1] [%] | inhibition at 0.5 µM [2] [%] | inhibition at 0.01 µM [3] [%] | inhibition at 0.5 µM [3] [%]
6 | A (0%≤substrate protein remaining %≤80%) | CN(C)C(=O)c1cc2cnc(Nc3ccc(N4CCC(CN5CC6CCC5CN6c5ccc6c(c5)C(=O)N(N5CCC(=O)NC5=O)C6=O)CC4)cn3)nc2n1C1CCCC1 (stereo not shown) [GT-05831, 7-cyclopentyl-2-((5-(4-((5-(2-(2,4-dioxotetrahydropyrimidin-1(2H)-yl)-1,3-dioxoisoindolin-5-yl)-2,5-diazabicyclo[2.2.2]octan-2-yl)methyl)piperidin-1-yl)pyridin-2-yl)amino)-N,N-dimethyl-7H-pyrrolo[2,3-d]pyrimidine-6-carboxamide] | B (80%<substrate protein remaining %≤100%) | – | – | – | –
7 | A (0%≤substrate protein remaining %≤80%) | CN(C)C(=O)c1cc2cnc(Nc3ccc(N4CCC(CN5CCN(c6cc(F)c7c(c6)C(=O)N(N6CCC(=O)NC6=O)C7=O)CC5)CC4)cn3)nc2n1C1CCCC1 [GT-05204, 7-cyclopentyl-2-((5-(4-((4-(2-(2,4-dioxotetrahydropyrimidin-1(2H)-yl)-7-fluoro-1,3-dioxoisoindolin-5-yl)piperazin-1-yl)methyl)piperidin-1-yl)pyridin-2-yl)amino)-N,N-dimethyl-7H-pyrrolo[2,3-d]pyrimidine-6-carboxamide] | B (80%<substrate protein remaining %≤100%) | – | – | – | –
8 | A (0%≤substrate protein remaining %≤80%) | CN(C)C(=O)c1cc2cnc(Nc3ccc(N4CCC(N5CCN(Cc6ccc7c(c6)CN(N6CCC(=O)NC6=O)C7=O)CC5)CC4)cn3)nc2n1C1CCCC1 [GT-06497, 7-cyclopentyl-2-((5-(4-(4-((2-(2,4-dioxotetrahydropyrimidin-1(2H)-yl)-1-oxoisoindolin-5-yl)methyl)piperazin-1-yl)piperidin-1-yl)pyridin-2-yl)amino)-N,N-dimethyl-7H-pyrrolo[2,3-d]pyrimidine-6-carboxamide] | A (0%≤substrate protein remaining %≤80%) | – | – | – | –
9 | A (0%≤substrate protein remaining %≤80%) | CN(C)C(=O)c1cc2cnc(Nc3ccc(N4CCC(N(C)Cc5ccc6c(c5)C(=O)N(N5CCC(=O)NC5=O)C6=O)CC4)cn3)nc2n1C1CCCC1 [GT-06488, 7-cyclopentyl-2-((5-(4-(((2-(2,4-dioxotetrahydropyrimidin-1(2H)-yl)-1,3-dioxoisoindolin-5-yl)methyl)(methyl)amino)piperidin-1-yl)pyridin-2-yl)amino)-N,N-dimethyl-7H-pyrrolo[2,3-d]pyrimidine-6-carboxamide] | B (80%<substrate protein remaining %≤100%) | – | – | – | –
10 | A (0%≤substrate protein remaining %≤80%) | Cc1nc2c(F)cc(-c3nc(Nc4ccc(N5CCC(N(C)Cc6ccc7c(c6)C(=O)N(N6CCC(=O)NC6=O)C7=O)CC5)cn4)ncc3F)cc2n1C(C)C [GT-06732, 2-(2,4-dioxotetrahydropyrimidin-1(2H)-yl)-5-(((1-(6-((5-fluoro-4-(4-fluoro-1-isopropyl-2-methyl-1H-benzo[d]imidazol-6-yl)pyrimidin-2-yl)amino)pyridin-3-yl)piperidin-4-yl)(methyl)amino)methyl)isoindoline-1,3-dione] | B (80%<substrate protein remaining %≤100%) | – | – | – | –
11 | A (0%≤substrate protein remaining %≤80%) | CN(C)C(=O)c1cc2cnc(Nc3ccc(N4CCC(CN5CC6CCC(C5)N6c5ccc6c(c5)C(=O)N(N5CCC(=O)NC5=O)C6=O)CC4)cn3)nc2n1C1CCCC1 [GT-05200, 7-cyclopentyl-2-((5-(4-((8-(2-(2,4-dioxotetrahydropyrimidin-1(2H)-yl)-1,3-dioxoisoindolin-5-yl)-3,8-diazabicyclo[3.2.1]octan-3-yl)methyl)piperidin-1-yl)pyridin-2-yl)amino)-N,N-dimethyl-7H-pyrrolo[2,3-d]pyrimidine-6-carboxamide] | B (80%<substrate protein remaining %≤100%) | – | – | – | –
